{"source": "patent EP2826473A1", "about": "“NOVEL USE OF PATCHOULOL” (Chengdu Huasun Group Inc., Ltd., priority 2012, dated 2013)", "key": {"[1]": {"system": "Staphylococcus epidermidis MRSE", "assay": "in vitro bacteriostatic activity, agar dilution MIC", "type": "cell-based"}, "[2]": {"system": "Staphylococcus xylosus", "assay": "in vitro bacteriostatic activity, agar dilution MIC", "type": "cell-based"}, "[3]": {"system": "Corynebacterium", "assay": "in vitro bacteriostatic activity, agar dilution MIC", "type": "cell-based", "settings": "Coryneba cterium 12-1"}, "[4]": {"system": "neurotoxicity of Aβ25∼35", "settings": "in vitro, 0.05, 0.5, 5 µg/ml; cited from earlier work"}, "[5]": {"system": "influenza virus H2N2", "settings": "intragastric administration of 5 mg/(kg·d); cited from earlier work"}, "[6]": {"system": "Staphylococcus epidermidis ATCC 12228", "assay": "in vitro bacteriostatic activity, agar dilution MIC, quality control strain", "type": "cell-based", "settings": "ATCC12228; Staphylococcus epidermidis ATCC 12228; read-out: MIC"}, "[7]": {"system": "Gram-positive bacteria and Gram-negative bacteria", "assay": "in vitro bacteriostatic activity, summary of Tables 1-5", "type": "cell-based", "settings": "read-out: MIC values", "procedure": "Preparation of drug-containing flat plates: patchoulol was diluted by coubling double dilution in DMSO, and 1 ml and 14 ml of sterile MH culture media in different gradient concentrations were respectively added to the disposable sterile petri dishes. Tested drugs were respectively diluted to different gradient concentrations from 768 to 0.006 µg/ml, fully mixed, and dried to reserve. As mentioned above, replacing tested drug with same amount of normal saline was used to prepare positive control plates.\nPreparation of bacterial liquid: Tested strains and drug-sensitive strains used for quality control were diluted with stroke-physiological saline solution to the concentration of 10^6 CFU/ml. […]\nStaphylococcus aureus and Staphylococcus epidermidis were cultured at 35-37°C for 18-24 h in MH media (containing 2% NaCl); Streptococcus pneumonia was cultured in brain heart infusion agar media (containing 5% goat blood) within an incubator under 5% CO2 at 35°C for 24 hours; Gram-negative bacteria and other strains were placed in an incubator at 35-37°C and cultured for 18-20 h; Results were observed and recorded. […]"}, "[8]": {"system": "Chryseobacterium indologenes", "assay": "in vitro bacteriostatic activity, agar dilution MIC", "type": "cell-based"}, "[9]": {"system": "vomit response", "settings": "chickens, 50-70 mg/kg; cited from earlier work"}, "[10]": {"system": "Staphylococcus sciuri", "assay": "in vitro bacteriostatic activity, agar dilution MIC", "type": "cell-based", "settings": "Mammaliicoccus sciuri; Staphylococcus sciuri 12-1"}, "[11]": {"system": "Staphylococcus saprophyticus", "assay": "in vitro bacteriostatic activity, agar dilution MIC", "type": "cell-based"}, "[12]": {"system": "Enterococcus faecalis", "assay": "in vitro bacteriostatic activity, agar dilution MIC", "type": "cell-based", "settings": "Enterococcus faecalis, read-out: MIC"}, "[13]": {"system": "Staphylococcus haemolyticus", "assay": "in vitro bacteriostatic activity, agar dilution MIC", "type": "cell-based"}, "[14]": {"system": "influenza virus A/PR/8/34 (H1N1)", "settings": "in vitro; cited from earlier work"}, "[15]": {"system": "carrageenan-induced paw edema", "settings": "cited from earlier work"}, "[16]": {"system": "Acinetobacter lwoffii", "assay": "in vitro bacteriostatic activity, agar dilution MIC", "type": "cell-based"}, "[17]": {"system": "Streptococcus agalactiae", "assay": "in vitro bacteriostatic activity, agar dilution MIC", "type": "cell-based", "settings": "Streptococcus agalactiae 12-1"}, "[18]": {"system": "Kurthia gibsonii", "assay": "in vitro bacteriostatic activity, agar dilution MIC", "type": "cell-based"}, "[19]": {"settings": "cited from earlier work"}, "[20]": {"system": "Klebsiella pneumonia E^+", "assay": "in vitro bacteriostatic activity, agar dilution MIC", "type": "cell-based", "settings": "Klebsiella pneumoniae"}, "[21]": {"system": "influenza virus FM1", "settings": "30 mg/kg; cited from earlier work"}, "[22]": {"system": "Staphylococcus aureus MSSA", "assay": "in vitro bacteriostatic activity, agar dilution MIC", "type": "cell-based", "settings": "Staphylococcus aureus, MSSA, read-out: MIC"}, "[23]": {"system": "Staphylococcus aureus", "assay": "in vitro bacteriostatic activity, agar dilution MIC, quality control strains", "type": "cell-based", "settings": "read-out: MIC"}, "[24]": {"system": "Klebsiella pneumonia E^-", "assay": "in vitro bacteriostatic activity, agar dilution MIC", "type": "cell-based"}, "[25]": {"system": "Pseudomonas aeruginosa", "assay": "in vitro bacteriostatic activity, agar dilution MIC", "type": "cell-based", "settings": "Pseudomonas aeruginosa12-1"}}, "note": "Like-named read-outs stand apart in the source and are kept apart here.", "data": [{"smiles": "C[C@H]1CC[C@@]2(O)C(C)(C)[C@@H]3CC[C@@]2(C)[C@H]1C3", "note": "(stereo in doubt) [PC, (1R,4S,4aS,6R,8aS)-octahydro-4,8a,9,9-tetramethyl-1,6-methanonaphthalen-1(2H)-ol]", "values": [{"measurement": "MIC", "setting": "[1]; Staphylococcus epidermidis MRSE 10-40, read-out: MIC", "result": 1.5, "unit": "µg/mL"}, {"measurement": "MIC", "setting": "[1]; Staphylococcus epidermidis MRSE 10-44, read-out: MIC", "result": 1.5, "unit": "µg/mL"}, {"measurement": "MIC", "setting": "[1]; Staphylococcus epidermidis MRSE 12-11, read-out: MIC", "result": 128, "unit": "µg/mL"}, {"measurement": "MIC", "setting": "[1]; Staphylococcus epidermidis MRSE 12-12, read-out: MIC", "result": 32, "unit": "µg/mL"}, {"measurement": "MIC", "setting": "[1]; Staphylococcus epidermidis MRSE 12-15, read-out: MIC", "result": 32, "unit": "µg/mL"}, {"measurement": "MIC", "setting": "[1]; Staphylococcus epidermidis MRSE 12-16, read-out: MIC", "result": 32, "unit": "µg/mL"}, {"measurement": "MIC", "setting": "[1]; Staphylococcus epidermidis MRSE 12-17, read-out: MIC", "result": 32, "unit": "µg/mL"}, {"measurement": "MIC", "setting": "[1]; Staphylococcus epidermidis MRSE 12-18, read-out: MIC", "result": 32, "unit": "µg/mL"}, {"measurement": "MIC", "setting": "[1]; Staphylococcus epidermidis MRSE 12-19, read-out: MIC", "result": 32, "unit": "µg/mL"}, {"measurement": "MIC", "setting": "[1]; Staphylococcus epidermidis MRSE 12-20, read-out: MIC", "result": 128, "unit": "µg/mL"}, {"measurement": "MIC", "setting": "[1]; Staphylococcus epidermidis MRSE 12-21, read-out: MIC", "result": 128, "unit": "µg/mL"}, {"measurement": "MIC", "setting": "[1]; Staphylococcus epidermidis MRSE 12-22, read-out: MIC", "result": 32, "unit": "µg/mL"}, {"measurement": "MIC", "setting": "[2]; Staphylococcus xylosus 12-1 (first line, r17), read-out: MIC", "result": 100, "unit": "µg/mL"}, {"measurement": "MIC", "setting": "[2]; Staphylococcus xylosus 12-1 (second line, r18)", "result": 100, "unit": "µg/mL"}, {"measurement": "MIC", "setting": "[3]", "result": 12.5, "unit": "µg/mL"}, {"measurement": "increase of intra-cellular ROS level and [Ca^2+]I induced by Aβ25~35", "setting": "[4]", "result": "inhibit the increase"}, {"measurement": "protective effect on infected model mice", "setting": "[5]", "result": "obvious protective effect"}, {"measurement": "MIC", "setting": "[6]", "result": 64, "unit": "µg/mL"}, {"measurement": "MIC", "setting": "[7]", "result": "1.5 to 200", "unit": "µg/mL"}, {"measurement": "MIC", "setting": "[8]; Chryseobacterium indologenes12- (first line, r25)", "result": 25, "unit": "µg/mL"}, {"measurement": "MIC", "setting": "[8]; Chryseobacterium indologenes12- (second line, r26)", "result": 100, "unit": "µg/mL"}, {"measurement": "vomit response induced by CuSO4", "setting": "[9]", "result": "obviously inhibit"}, {"measurement": "MIC", "setting": "[10]", "result": 50, "unit": "µg/mL"}, {"measurement": "MIC", "setting": "[11]; Staphylococcus saprophyticus 12-2", "result": 100, "unit": "µg/mL"}, {"measurement": "MIC", "setting": "[11]; Staphylococcus saprophyticus12-3", "result": 100, "unit": "µg/mL"}, {"measurement": "MIC", "setting": "[11]; Staphylococcus saprophyticus, Staphylococcus saprophyticus12-1, read-out: MIC", "result": 100, "unit": "µg/mL"}, {"measurement": "MIC", "setting": "[12]; ATCC29212, Enterococcus faecalis ATCC 29212", "result": 128, "unit": "µg/mL"}, {"measurement": "MIC", "setting": "[12]; ATCC51299, Enterococcus faecalis (high endurance) ATCC 51299", "result": 128, "unit": "µg/mL"}, {"measurement": "MIC", "setting": "[12]; Enterococcus faecalis 12-11", "result": "> 128", "unit": "µg/mL"}, {"measurement": "MIC", "setting": "[12]; Enterococcus faecalis 12-12", "result": 32, "unit": "µg/mL"}, {"measurement": "MIC", "setting": "[12]; Enterococcus faecalis 12-13", "result": 128, "unit": "µg/mL"}, {"measurement": "MIC", "setting": "[12]; Enterococcus faecalis 12-14", "result": 64, "unit": "µg/mL"}, {"measurement": "MIC", "setting": "[12]; Enterococcus faecalis 12-17", "result": 128, "unit": "µg/mL"}, {"measurement": "MIC", "setting": "[12]; Enterococcus faecalis 12-18", "result": 128, "unit": "µg/mL"}, {"measurement": "MIC", "setting": "[12]; Enterococcus faecalis 12-19", "result": 128, "unit": "µg/mL"}, {"measurement": "MIC", "setting": "[12]; Enterococcus faecalis 12-20", "result": 128, "unit": "µg/mL"}, {"measurement": "MIC", "setting": "[12]; Enterococcus faecalis 12-21", "result": 64, "unit": "µg/mL"}, {"measurement": "MIC", "setting": "[12]; Enterococcus faecalis 12-22", "result": 64, "unit": "µg/mL"}, {"measurement": "MIC", "setting": "[13]", "result": 100, "unit": "µg/mL"}, {"measurement": "IC50", "setting": "[14]", "result": "~2640", "unit": "nM"}, {"measurement": "content of NO, PGE-2, TNF-α in the hind paw", "setting": "[15]; inflammatory rats, high dosage", "result": "significantly reduce"}, {"measurement": "carrageenan-induced paw edema", "setting": "[15]; rats, dose-dependent", "result": "effectively inhibit"}, {"measurement": "MIC", "setting": "[16]; Acinetobacter lwoffii 12-1, read-out: MIC", "result": 50, "unit": "µg/mL"}, {"measurement": "MIC", "setting": "[16]; Acinetobacter lwoffii 12-2", "result": 50, "unit": "µg/mL"}, {"measurement": "MIC", "setting": "[17]", "result": 50, "unit": "µg/mL"}, {"measurement": "MIC", "setting": "[18]; Kurthia gibsonii 12-1, read-out: MIC", "result": 50, "unit": "µg/mL"}, {"measurement": "MIC", "setting": "[18]; Kurthia gibsonii 12-2", "result": 50, "unit": "µg/mL"}, {"measurement": "solubility", "setting": "[19]; in petroleum ether, ethanol and other commonly used organic solvents", "result": "freely soluble"}, {"measurement": "solubility", "setting": "[19]; in water", "result": "insoluble"}, {"measurement": "MIC", "setting": "[20]; Klebsiella pneumonia E^+ 10-2", "result": "> 768", "unit": "µg/mL"}, {"measurement": "MIC", "setting": "[20]; Klebsiella pneumonia E^+ 10-6", "result": "> 768", "unit": "µg/mL"}, {"measurement": "survival rate of infected mice", "setting": "[21]", "result": "improve the survival rate"}, {"measurement": "MIC", "setting": "[22]; Staphylococcus aureus MSSA 10-38", "result": 1.5, "unit": "µg/mL"}, {"measurement": "MIC", "setting": "[22]; Staphylococcus aureus MSSA 10-40", "result": 1.5, "unit": "µg/mL"}, {"measurement": "MIC", "setting": "[22]; Staphylococcus aureus MSSA 10-41", "result": 1.5, "unit": "µg/mL"}, {"measurement": "MIC", "setting": "[22]; Staphylococcus aureus MSSA 12-11", "result": 128, "unit": "µg/mL"}, {"measurement": "MIC", "setting": "[22]; Staphylococcus aureus MSSA 12-13", "result": 128, "unit": "µg/mL"}, {"measurement": "MIC", "setting": "[22]; Staphylococcus aureus MSSA 12-14", "result": 64, "unit": "µg/mL"}, {"measurement": "MIC", "setting": "[22]; Staphylococcus aureus MSSA 12-15", "result": 128, "unit": "µg/mL"}, {"measurement": "MIC", "setting": "[22]; Staphylococcus aureus MSSA 12-16", "result": 64, "unit": "µg/mL"}, {"measurement": "MIC", "setting": "[22]; Staphylococcus aureus MSSA 12-17", "result": 64, "unit": "µg/mL"}, {"measurement": "MIC", "setting": "[22]; Staphylococcus aureus MSSA 12-18", "result": 128, "unit": "µg/mL"}, {"measurement": "MIC", "setting": "[22]; Staphylococcus aureus MSSA 12-19", "result": 128, "unit": "µg/mL"}, {"measurement": "MIC", "setting": "[22]; Staphylococcus aureus MSSA 12-20", "result": 64, "unit": "µg/mL"}, {"measurement": "MIC", "setting": "[22]; Staphylococcus aureus MSSA 12-21", "result": 64, "unit": "µg/mL"}, {"measurement": "MIC", "setting": "[23]; ATCC25923, Staphylococcus aureus ATCC 25923", "result": 1.5, "unit": "µg/mL"}, {"measurement": "MIC", "setting": "[23]; ATCC29213, Staphylococcus aureus ATCC 29213", "result": 64, "unit": "µg/mL"}, {"measurement": "MIC", "setting": "[24]; Klebsiella pneumonia E^- 10-18", "result": ">768", "unit": "µg/mL"}, {"measurement": "MIC", "setting": "[24]; Klebsiella pneumoniae, Klebsiella pneumonia E^- 10-16, read-out: MIC", "result": "> 768", "unit": "µg/mL"}, {"measurement": "MIC", "setting": "[25]", "result": 50, "unit": "µg/mL"}]}]}
